The values that follow come from publication PMC12295440, “C-Terminal Analogues of Camostat Retain TMPRSS2 Protease Inhibition: New Synthetic Directions for Antiviral Repurposing of Guanidinium-Based Drugs in Respiratory Infections” (International Journal of Molecular Sciences, 2025).

The assay addresses T1, TMPRSS2 (Homo sapiens, UniProt O15393).
T1 construct: purchased BPS Bioscience 780837
Nature of the assay: TMPRSS2 fluorogenic protease inhibition assay (BPS Bioscience kit). The format is biochemical. The note with it: for pIC50: fluorogenic substrate, 30 min pre-incubation at room temperature, average of two independent experiments in duplicate (N = 4), read-out: IC50, in vitro TMPRSS2 enzyme inhibition.

pIC50: −log10 of the molar value. “And” between values parts separate entries of the source, which are not always exact repeats. Identical values can stand only once.

As usually defined, the pIC50 is the IC50 on a negative log10 scale, so that one unit is a factor of ten.

T1 sequence (O15393 whole entry): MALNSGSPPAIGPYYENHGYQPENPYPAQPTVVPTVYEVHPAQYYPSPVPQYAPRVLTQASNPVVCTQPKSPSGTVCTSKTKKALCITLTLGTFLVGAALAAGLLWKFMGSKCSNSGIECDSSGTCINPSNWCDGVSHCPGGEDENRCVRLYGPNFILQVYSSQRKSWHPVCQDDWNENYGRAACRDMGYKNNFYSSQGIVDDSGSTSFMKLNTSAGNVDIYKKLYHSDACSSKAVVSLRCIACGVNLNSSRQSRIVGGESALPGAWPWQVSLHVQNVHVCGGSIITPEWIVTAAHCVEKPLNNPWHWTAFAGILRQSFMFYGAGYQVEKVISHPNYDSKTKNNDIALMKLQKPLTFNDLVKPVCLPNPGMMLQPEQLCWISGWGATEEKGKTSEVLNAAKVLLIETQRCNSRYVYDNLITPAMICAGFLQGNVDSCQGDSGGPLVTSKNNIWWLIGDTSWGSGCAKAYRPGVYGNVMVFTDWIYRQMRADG

Turning to `CNC(=O)COC(=O)Cc1ccc(OC(=O)c2ccc(NC(=N)N)cc2)cc1` [Compound 1c], the negative-log IC50 (pIC50) was 8.90 and 8.89.
As for `N=C(N)Nc1ccc(C(=O)Oc2ccc(CC(=O)OCC(=O)N3CCOCC3)cc2)cc1` [Compound 1d], the pIC50 is 8.75 and 8.74.
As to `CN(C)C(=O)CNC(=O)Cc1ccc(NC(=O)c2ccc(NC(=N)N)cc2)cc1` [Compound 1e], under “fluorogenic assay, concentrations 0.007-0.1054 µM”, the “TMPRSS2 inhibition (in words)” value was “fell out of the range of the assay”.
